Legend:
Assay type in all cases: cell-based
ENL [1] = target: T1, ENL (Homo sapiens, UniProt Q03111); assay: Western blot of ENL protein levels in MV4; 11 cells
T1 construct: Cells were lysed and expression of endogenous ENL was assessed by Western blot analysis; host or cells: MV4;11
T1 sequence (Q03111 1-559): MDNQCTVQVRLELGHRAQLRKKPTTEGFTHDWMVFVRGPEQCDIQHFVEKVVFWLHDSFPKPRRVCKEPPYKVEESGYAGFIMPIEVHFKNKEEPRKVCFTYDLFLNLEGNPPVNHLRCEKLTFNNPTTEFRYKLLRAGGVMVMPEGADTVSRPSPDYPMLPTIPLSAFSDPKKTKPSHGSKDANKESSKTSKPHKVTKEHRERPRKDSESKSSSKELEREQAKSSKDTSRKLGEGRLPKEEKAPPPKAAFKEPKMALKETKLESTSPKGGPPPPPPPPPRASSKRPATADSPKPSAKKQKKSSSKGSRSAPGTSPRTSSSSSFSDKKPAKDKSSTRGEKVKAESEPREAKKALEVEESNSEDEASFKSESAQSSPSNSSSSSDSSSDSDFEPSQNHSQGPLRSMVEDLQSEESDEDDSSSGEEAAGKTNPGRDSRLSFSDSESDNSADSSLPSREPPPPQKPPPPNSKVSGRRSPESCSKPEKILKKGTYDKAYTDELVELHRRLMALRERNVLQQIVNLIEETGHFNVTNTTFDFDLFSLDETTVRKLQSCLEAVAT
Procedure: MV4; 11 cells were treated with DMSO or the indicated compounds (the same panel of ENL degraders as shown in FIG. 4) at 1 μM and 10 μM for 24 h. Cells were lysed and expression of ENL was assessed by Western blot analysis.
DMSO treated cells were used as control.
MV4; 11 cells were treated with LQ076-122, or LQ081-107 at 0.3, 1, 3, 10, and 30 μM for 24 h. DMSO treated cells were used as control. Cells were lysed and expression of ENL and GAS41 was assessed by Western analysis.
MV4; 11 cells were treated with DMSO or the indicated compounds at 1 μM and 10 μM for 6 h. Cells were lysed and expression of endogenous ENL was assessed by Western blot analysis.
Cells were treated with 1 μM of ENL degrader with or without 1 μM proteasome inhibitor MG132 for 6 h.
(§1) ENL degraders were dissolved in DMSO. DMSO with no degraders was used as the control. 1×10^6 leukemia cells were seeded in 5 mL medium. For prescreening of compounds, each test compound was added to the medium at 1 μM and 10 μM. Cells were collected after 24 h treatment. For the concentration-dependent treatment, candidate compounds were added to the medium at a series of concentration as indicated in figures. Cells were collected after 24 h treatment. For the time-course treatment, candidate compounds were added to the medium at a final concentration of 4 μM (MV4; 11 cells) or 8 μM (MOLM13 cells). Cells were collected at the indicated timepoints (in hours: 12, 16, 20, 24 and 36 h).
(§2) After ENL degrader treatment, cells were collected, lysed, and total cell lysates were used for Western blot. The following primary antibodies were used: ENL (Cell Signaling Technology), GAS41 (Santa Cruz), GAPDH (Santa Cruz), β-actin (Sigma). Blots were detected using HRP-conjugated secondary antibodies.

ENL target genes = assay: RT-qPCR of ENL target genes in MOLM13 cells
Procedure: MOLM13 cells were treated with LQ076-122 (FIG. 14A) and LQ081-108 (FIG. 14B) at 0.5, 1, 2, 4, and 8 μM for 24 h. […] RT-qPCR analysis was performed to detect the mRNA levels of selected ENL target genes.
Total RNA was extracted using the RNeasy Plus kit (Qiagen) and reverse-transcribed using the iScript cDNA Synthesis kit (Bio-Rad). RT-qPCR was performed using the Power SYBR Green PCR Master Mix (Applied Biosystems) on the CFX96 Real-Time PCR system (Bio-Rad). Gene expressions were calculated following normalization to 18s rRNA amounts using the comparative cycle threshold (Ct) method.

ENL [2] = target: T1, ENL; assay: Western blot of ENL protein levels in MOLM13 cells
Procedure: MOLM13 cells were treated with LQ076-122 or LQ081-108 at 0, 0.25, 0.5, 1, 1.5, 2, 2.5, 3, 4 and 8 μM for 24 h.
MOLM13 cells were treated with DMSO or 8 μM of LQ076-122 for 12, 16, 20, 24 and 36 h.
MV4; 11, MOLM13 and Jurkat cells were treated with LQ108-69, LQ108-71, LQ108-72, LQ126-62 and LQ126-63 at 0, 1 nM, 10 nM, 100 nM, 1 μM, and 10 μM doses for 6 h. DMSO was used as negative control.
as §1, §2

[3] = system: ENL-dependent MV4; 11 cells; assay: Cell viability (CellTiter-Glo), MV4; 11 cells
Procedure: (§3) MV4; 11 (FIG. 13A), MOLM13 (FIG. 13B) and Jurkat (FIG. 13C) cells were seeded at 2×10^5 cells/mL density and treated with DMSO or indicated compounds 0.5, 1, 2 and 4 μM for 72 h. Cell viability was measured using CellTiter-Glo reagent (Promega) and relative cell viability was calculated by normalization to DMSO samples.
ENL-dependent MV4; 11 cells were seeded at 2×10^5 cells/mL density and treated with DMSO or the indicated compounds at 0, 1.25, 2.5, 5 and 10 μM for 72 h. Cell viability was measured using CellTiter-Glo reagent (Promega) and relative cell viability was calculated by normalization to DMSO samples.
(§4) ENL-dependent MV4; 11 and ENL-independent Jurkat cells were seeded at 2×10^5 cells/mL density and treated with DMSO or indicated compounds at 10 nM, 100 nM, 1 μM and 10 μM for 3 days (A) or 6 days (B). Cell viability was measured using CellTiter-Glo reagent (Promega) and relative cell viability was calculated by normalization to DMSO samples.
(§5) MV4; 11 or MOLM13 cells were seeded at 0.2×10^6 cells/mL density. Cells were treated with DMSO or ENL degraders at indicated concentrations. Each treatment was done in triplicates. After 72 h treatment, 100 μL of cell suspension from each treatment was mixed with 25 μL of CellTiter-Glo reagent (Promega) and incubated for 10 min before the luminescence signals were detected on a plate reader.

[4] = system: ENL-dependent MOLM13 leukemia cells; assay: Cell viability (CellTiter-Glo), MOLM13 cells; settings: MOLM13 cells, 0.5, 1, 2 and 4 μM for 72 h
Procedure: as §3, §5

ENL [5] = target: T1, ENL; assay: Western blot of ENL protein levels in Jurkat cells
Text: […] DMSO was used as negative control.
as §2

[6] = system: ENL-independent Jurkat cells; assay: Cell viability (CellTiter-Glo), Jurkat cells
Procedure: as §3, §4

[7] = 11 cells, 0.3, 1, 3 and 10 μM for 12 and 24 h
[8] = 11 cells, 0.5, 1, 2 and 4 μM for 72 h
[9] = Jurkat cells, 0.5, 1, 2 and 4 μM for 72 h

Compound: Cc1ncsc1-c1ccc(CNC(=O)[C@H]2C[C@H](O)CN2C(=O)[C@@H](NC(=O)CCCCCCCCCCNC(=O)c2ccc(C(=O)Nc3ccc4[nH]c(CN5CCC[C@@H]5C)nc4c3)cc2)C(C)(C)C)cc1 [LQ081-107]
- reduction of ENL protein levels (ENL [1]; [7]): did not affect ENL protein levels
- ENL target gene expression (mRNA levels) (ENL target genes; MOLM13 cells, 8 μM for 24 h): did not dramatically affect these genes

Compound: Cc1ncsc1-c1ccc([C@H](C)NC(=O)[C@@H]2C[C@@H](O)CN2C(=O)[C@@H](NC(=O)CCCCCCCCCCNC(=O)c2ccc(C(=O)Nc3ccc4[nH]c(CN5CCC[C@@H]5C)nc4c3)cc2)C(C)(C)C)cc1 [LQ081-108, N^1-(11-(((S)-1-((2S,4R)-4-hydroxy-2-(((S)-1-(4-(4-methylthiazol-5-yl)phenyl)ethyl)carbamoyl)pyrrolidin-1-yl)-3,3-dimethyl-1-oxobutan-2-yl)amino)-11-oxoundecyl)-N^4-(2-(((S)-2-methylpyrrolidin-1-yl)methyl)-1H-benzo[d]imidazol-5-yl)terephthalamide]
- reduction of ENL protein levels (ENL [1]; 11 cells, 0-8 μM for 24 h): reduced ENL protein levels in a concentration-dependent manner
- reduction of ENL protein levels (ENL [1]; 11 cells, 10 μM, 24 h): effective in reducing ENL protein levels
- reduction of ENL protein levels (ENL [1]; [7]): reduced ENL protein levels in a concentration- and time-dependent manner
- reduction of ENL protein levels (ENL [2]; 0-8 μM for 24 h): reduced ENL protein levels in a concentration-dependent manner
- suppression of cell growth (relative cell viability) [3, 8]: selectively suppressed cell growth
- suppression of cell growth (relative cell viability) [4]: selectively suppressed cell growth
- ENL target gene expression (mRNA levels) (ENL target genes; MOLM13 cells, 0.5, 1, 2, 4 and 8 μM for 24 h): reduced ENL target gene expression in a concentration-dependent manner

Compound: Cc1ncsc1-c1ccc(CNC(=O)[C@@H]2C[C@@H](O)CN2C(=O)[C@@H](NC(=O)CCCCCCCCCCNC(=O)c2ccc3c(c2)[C@H](NC(=O)c2cc(-c4ccc(C(=O)N(C)C)c(O)c4)on2)CC3)C(C)(C)C)cc1 [LQ126-63, 5-(4-(dimethylcarbamoyl)-3-hydroxyphenyl)-N—((R)-6-((11-(((S)-1-((2S,4R)-4-hydroxy-2-((4-(4-methylthiazol-5-yl)benzyl)carbamoyl)pyrrolidin-1-yl)-3,3-dimethyl-1-oxobutan-2-yl)amino)-11-oxoundecyl)carbamoyl)-2,3-dihydro-1H-inden-1-yl)isoxazole-3-carboxamide]
- reduction of ENL protein levels (ENL [1]; 11 cells, 1 nM to 10 μM for 6 h): reduced ENL protein levels in a concentration-dependent manner
- effect of proteasome inhibitor MG132 on the ENL degradation induced by the degrader (ENL [1]; 11 cells, 1 μM degrader with or without 1 μM MG132 for 6 h): partially blocks the ENL degradation
- ENL protein level after long treatment (ENL [1]; 11 cells, 1 μM for 48 and 72 h): maintained the ENL protein at low levels
- reduction of ENL protein levels (ENL [2]; 1 nM to 10 μM for 6 h): reduced ENL protein levels in a concentration-dependent manner
- ENL protein level after long treatment (ENL [2]; 1 μM for 48 and 72 h): maintained the ENL protein at low levels
- reduction of ENL protein levels (ENL [5]; 1 nM to 10 μM for 6 h): reduced ENL protein levels in a concentration-dependent manner
- ENL protein level after long treatment (ENL [5]; 1 μM for 48 and 72 h): maintained the ENL protein at low levels
- suppression of cell growth (relative cell viability) ([3]; 11 cells, 100 nM dose, 3 days and 6 days): strongly suppressed MV4; 11 cell growth
- suppression of cell growth (relative cell viability) ([3]; 11 cells, 1.25, 2.5, 5 and 10 μM for 72 h): significantly suppressed MV4; 11 cell growth at low micromolar concentration
- suppression of cell growth (relative cell viability) ([6]; Jurkat cells, 10 nM to 10 μM, 3 days and 6 days): did not affect the growth of ENL-independent Jurkat cells

Compound: Cc1ncsc1-c1ccc([C@H](C)NC(=O)[C@H]2C[C@H](O)CN2C(=O)[C@@H](NC(=O)CCCCCCCCCCCNC(=O)c2ccc(C(=O)Nc3ccc4[nH]c(CN5CCC[C@@H]5C)nc4c3)cc2)C(C)(C)C)cc1 [LQ081-158]
- suppression of cell growth (relative cell viability) [3, 8]: did not significantly affect cell growth
- suppression of cell growth (relative cell viability) [4]: did not significantly affect cell growth
- suppression of cell growth (relative cell viability) [6, 9]: did not significantly affect cell growth

Compound: Cc1ncsc1-c1ccc([C@H](C)NC(=O)C2C[C@@H](OCc3ccccc3)CN2C(=O)[C@@H](NC(=O)CCCCCCCCCCCNC(=O)c2ccc(C(=O)Nc3ccc4[nH]c(CN5CCC[C@@H]5C)nc4c3)cc2)C(C)(C)C)cc1 (stereo partly shown) [LQ108-142]
- suppression of cell growth (relative cell viability) [3, 8]: did not significantly affect cell growth
- suppression of cell growth (relative cell viability) [4]: did not significantly affect cell growth
- suppression of cell growth (relative cell viability) [6, 9]: did not significantly affect cell growth

Compound: Cc1ncsc1-c1ccc([C@H](C)NC(=O)[C@@H]2C[C@@H](OCc3ccccc3)CN2C(=O)[C@@H](NC(=O)CCCCCCCCCCNC(=O)c2ccc(C(=O)Nc3ccc4[nH]c(CN5CCC[C@@H]5C)nc4c3)cc2)C(C)(C)C)cc1 [LQ108-141]
- suppression of cell growth (relative cell viability) [3, 8]: did not significantly affect cell growth
- suppression of cell growth (relative cell viability) [4]: did not significantly affect cell growth
- suppression of cell growth (relative cell viability) [6, 9]: did not significantly affect cell growth

From patent US20230391765A1, “HETEROBIFUNCTIONAL COMPOUNDS AS DEGRADERS OF ENL” (ICAHN SCHOOL OF MEDICINE AT MOUNT SINAI, priority 2020, published 2023)
